# Calls of active or inactive are those of the source.
# Assays:
# [1] = cells
# [2] = molecular target: Ion channel NompC (Danio rerio, UniProt Q7T1G6); experiment: Fluorescence counterscreen assay for TRPML3 agonists: dose response cell-based high-throughput screening assay to identify agonists of the transient receptor potential channel N1 (TRPN1). [Related pubchem assays: 1526, 1424, 1448 ]; format: functional
# [3] = molecular target: T1, Mucolipin-3 (Homo sapiens, UniProt Q8TDD5); experiment: Dose response cell-based high-throughput screening assay for agonists of the transient receptor potential channel ML3 (TRPML3). [Related pubchem assays: 1526, 1424, 1448 ]; format: functional
# T1 sequence (Q8TDD5 whole entry): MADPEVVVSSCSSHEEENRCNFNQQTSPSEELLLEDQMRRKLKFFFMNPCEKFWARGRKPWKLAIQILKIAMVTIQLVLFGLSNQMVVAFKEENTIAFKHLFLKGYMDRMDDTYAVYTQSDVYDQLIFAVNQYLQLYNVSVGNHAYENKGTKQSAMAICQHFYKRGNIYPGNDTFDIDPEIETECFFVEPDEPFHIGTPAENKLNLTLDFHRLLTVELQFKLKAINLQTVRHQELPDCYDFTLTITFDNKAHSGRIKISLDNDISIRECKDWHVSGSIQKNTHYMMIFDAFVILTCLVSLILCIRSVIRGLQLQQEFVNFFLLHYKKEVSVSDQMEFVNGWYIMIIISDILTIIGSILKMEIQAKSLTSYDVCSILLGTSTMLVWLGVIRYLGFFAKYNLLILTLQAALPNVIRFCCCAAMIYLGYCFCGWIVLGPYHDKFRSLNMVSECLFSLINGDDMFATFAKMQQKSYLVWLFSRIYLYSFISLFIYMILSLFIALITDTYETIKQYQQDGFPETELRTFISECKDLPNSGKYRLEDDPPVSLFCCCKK
# [4] = molecular target: NAD-dependent protein deacylase sirtuin-5, mitochondrial (Homo sapiens, UniProt Q9NXA8); experiment: SIRT5 desuccinylase inhibitors, dose response, biochemical, fluorescence imaging, cherry-pick, set 5 (AID 720591);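 note: desuccinylation of succinyl peptide AMC substrate read as fluorescence after trypsin release; potency of inhibitors that lower fluorescence and may act on trypsin instead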
# [5] = molecular target: T2, Streptokinase A (Streptococcus pyogenes serotype M1, UniProt P10520); experiment: S. pyogenes streptokinase expression inhibitors, potency, dose response, plasminogen activation absorbance, OD405 (AID 1914); format: functional, Streptococcus pyogenes M1 GAS;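 note: secreted streptokinase activity via plasminogen activation per viability signal from cell pellet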
# T2 sequence (P10520 whole entry): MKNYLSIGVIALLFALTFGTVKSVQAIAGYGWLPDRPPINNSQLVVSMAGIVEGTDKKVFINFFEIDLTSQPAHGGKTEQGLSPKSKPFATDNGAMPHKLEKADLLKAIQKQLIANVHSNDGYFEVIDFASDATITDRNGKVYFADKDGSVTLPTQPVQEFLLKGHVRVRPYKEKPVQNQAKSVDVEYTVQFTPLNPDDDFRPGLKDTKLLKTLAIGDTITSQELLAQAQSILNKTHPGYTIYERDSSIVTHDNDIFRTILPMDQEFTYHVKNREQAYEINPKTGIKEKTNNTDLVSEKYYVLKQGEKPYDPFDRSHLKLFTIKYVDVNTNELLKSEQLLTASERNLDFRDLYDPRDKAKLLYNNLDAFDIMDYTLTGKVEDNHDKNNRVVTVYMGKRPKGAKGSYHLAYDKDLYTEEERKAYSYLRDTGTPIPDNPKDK
# [6] = system: Streptococcus sp. 'group A'; experiment: growth inhibition of control SK(-) GAS strain, dose response, counter-screen for streptokinase expression inhibitor project, luminescence, kanamycin, BacTiterGlo, confirmation (AID 1900); format: functional, organism-based
# [7] = HEp-2 cell cytotoxicity, dose response, cytotoxicity control for RSV inhibitor project, HTS (AID 2410); format: functional; conditions: human respiratory syncytial virus
# [8] = system: Streptococcus; experiment: Group A Streptococcus viability loss, dose response, counter-screen for streptokinase expression inhibitor project, luminescence, BacTiterGlo (AID 1915); format: functional, organism-based;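 note: potency for reduction of bacterial viability or growth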
# [9] = molecular target: Glyceraldehyde-3-phosphate dehydrogenase (Homo sapiens, UniProt P04406)
# [10] = molecular target: T3, DNA repair protein RAD52 homolog (Homo sapiens, UniProt P43351); format: functional, biochemical
# T3 sequence (P43351 whole entry): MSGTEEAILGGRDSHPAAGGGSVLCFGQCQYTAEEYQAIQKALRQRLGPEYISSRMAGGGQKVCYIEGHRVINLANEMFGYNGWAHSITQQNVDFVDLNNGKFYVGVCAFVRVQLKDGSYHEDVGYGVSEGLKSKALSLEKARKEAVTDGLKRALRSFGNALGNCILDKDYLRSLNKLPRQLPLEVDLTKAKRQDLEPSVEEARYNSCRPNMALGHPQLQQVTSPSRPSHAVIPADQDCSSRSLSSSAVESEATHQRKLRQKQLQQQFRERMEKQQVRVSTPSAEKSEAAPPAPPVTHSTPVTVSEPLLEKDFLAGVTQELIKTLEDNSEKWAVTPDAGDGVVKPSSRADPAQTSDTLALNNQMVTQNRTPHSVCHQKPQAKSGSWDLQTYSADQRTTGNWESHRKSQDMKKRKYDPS
# [11] = molecular target: FAD-linked sulfhydryl oxidase ALR (Homo sapiens, UniProt P55789); experiment: inhibitors of human ALR sulfhydryl oxidase, dose response, biochemical, H2O2 detection, luminescence, cherry-pick (AID 493248)
# [12] = molecular target: T4, Leucine aminopeptidase (Plasmodium falciparum 3D7, UniProt Q8IL11); experiment: P. falciparum M17LAP inhibitors, primary screen, biochemical, fluorogenic H-Leu-NHMec substrate, 1536-well (AID 1619); format: functional
# T4 sequence (Q8IL11 whole entry): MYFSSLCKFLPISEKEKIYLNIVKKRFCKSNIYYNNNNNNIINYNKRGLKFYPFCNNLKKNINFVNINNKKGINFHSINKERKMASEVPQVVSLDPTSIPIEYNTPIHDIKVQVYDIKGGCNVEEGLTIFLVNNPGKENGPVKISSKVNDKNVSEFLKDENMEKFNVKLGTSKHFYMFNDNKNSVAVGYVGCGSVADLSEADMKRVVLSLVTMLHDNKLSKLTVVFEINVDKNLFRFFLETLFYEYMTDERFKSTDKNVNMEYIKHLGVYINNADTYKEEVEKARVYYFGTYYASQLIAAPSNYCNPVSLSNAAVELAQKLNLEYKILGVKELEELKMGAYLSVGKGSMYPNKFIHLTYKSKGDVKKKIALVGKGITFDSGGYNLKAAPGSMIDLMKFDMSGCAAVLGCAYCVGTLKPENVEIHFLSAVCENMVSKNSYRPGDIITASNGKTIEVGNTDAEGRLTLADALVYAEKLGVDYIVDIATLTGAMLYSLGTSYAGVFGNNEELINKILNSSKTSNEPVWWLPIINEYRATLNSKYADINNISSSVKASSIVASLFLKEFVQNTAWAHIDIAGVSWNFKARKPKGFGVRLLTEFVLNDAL
# [13] = THP-1 cell cytotoxicity, dose response, cytotoxicity control for Vif-APOBEC3G degradation inhibitor project, THP-1 cells (AID 1117359); format: functional; conditions: Human immunodeficiency virus 1, THP-1
# [14] = molecular target: T5, Calpain-2 catalytic subunit (Sus scrofa, UniProt P43367); experiment: pig calpain II inhibitor potency, dose response, biochemical, fluorogenic peptide substrate (AID 1420); format: functional
# T5 sequence (P43367 whole entry): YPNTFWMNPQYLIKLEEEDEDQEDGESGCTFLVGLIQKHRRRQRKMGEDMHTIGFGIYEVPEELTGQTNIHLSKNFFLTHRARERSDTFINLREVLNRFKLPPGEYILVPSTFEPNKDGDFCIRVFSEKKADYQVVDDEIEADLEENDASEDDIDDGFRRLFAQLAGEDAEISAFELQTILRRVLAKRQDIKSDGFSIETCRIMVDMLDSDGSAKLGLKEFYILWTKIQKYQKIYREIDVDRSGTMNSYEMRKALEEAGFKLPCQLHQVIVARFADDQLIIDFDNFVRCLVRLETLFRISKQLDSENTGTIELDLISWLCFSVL
# Sequence of Ion channel NompC (Q7T1G6 whole entry): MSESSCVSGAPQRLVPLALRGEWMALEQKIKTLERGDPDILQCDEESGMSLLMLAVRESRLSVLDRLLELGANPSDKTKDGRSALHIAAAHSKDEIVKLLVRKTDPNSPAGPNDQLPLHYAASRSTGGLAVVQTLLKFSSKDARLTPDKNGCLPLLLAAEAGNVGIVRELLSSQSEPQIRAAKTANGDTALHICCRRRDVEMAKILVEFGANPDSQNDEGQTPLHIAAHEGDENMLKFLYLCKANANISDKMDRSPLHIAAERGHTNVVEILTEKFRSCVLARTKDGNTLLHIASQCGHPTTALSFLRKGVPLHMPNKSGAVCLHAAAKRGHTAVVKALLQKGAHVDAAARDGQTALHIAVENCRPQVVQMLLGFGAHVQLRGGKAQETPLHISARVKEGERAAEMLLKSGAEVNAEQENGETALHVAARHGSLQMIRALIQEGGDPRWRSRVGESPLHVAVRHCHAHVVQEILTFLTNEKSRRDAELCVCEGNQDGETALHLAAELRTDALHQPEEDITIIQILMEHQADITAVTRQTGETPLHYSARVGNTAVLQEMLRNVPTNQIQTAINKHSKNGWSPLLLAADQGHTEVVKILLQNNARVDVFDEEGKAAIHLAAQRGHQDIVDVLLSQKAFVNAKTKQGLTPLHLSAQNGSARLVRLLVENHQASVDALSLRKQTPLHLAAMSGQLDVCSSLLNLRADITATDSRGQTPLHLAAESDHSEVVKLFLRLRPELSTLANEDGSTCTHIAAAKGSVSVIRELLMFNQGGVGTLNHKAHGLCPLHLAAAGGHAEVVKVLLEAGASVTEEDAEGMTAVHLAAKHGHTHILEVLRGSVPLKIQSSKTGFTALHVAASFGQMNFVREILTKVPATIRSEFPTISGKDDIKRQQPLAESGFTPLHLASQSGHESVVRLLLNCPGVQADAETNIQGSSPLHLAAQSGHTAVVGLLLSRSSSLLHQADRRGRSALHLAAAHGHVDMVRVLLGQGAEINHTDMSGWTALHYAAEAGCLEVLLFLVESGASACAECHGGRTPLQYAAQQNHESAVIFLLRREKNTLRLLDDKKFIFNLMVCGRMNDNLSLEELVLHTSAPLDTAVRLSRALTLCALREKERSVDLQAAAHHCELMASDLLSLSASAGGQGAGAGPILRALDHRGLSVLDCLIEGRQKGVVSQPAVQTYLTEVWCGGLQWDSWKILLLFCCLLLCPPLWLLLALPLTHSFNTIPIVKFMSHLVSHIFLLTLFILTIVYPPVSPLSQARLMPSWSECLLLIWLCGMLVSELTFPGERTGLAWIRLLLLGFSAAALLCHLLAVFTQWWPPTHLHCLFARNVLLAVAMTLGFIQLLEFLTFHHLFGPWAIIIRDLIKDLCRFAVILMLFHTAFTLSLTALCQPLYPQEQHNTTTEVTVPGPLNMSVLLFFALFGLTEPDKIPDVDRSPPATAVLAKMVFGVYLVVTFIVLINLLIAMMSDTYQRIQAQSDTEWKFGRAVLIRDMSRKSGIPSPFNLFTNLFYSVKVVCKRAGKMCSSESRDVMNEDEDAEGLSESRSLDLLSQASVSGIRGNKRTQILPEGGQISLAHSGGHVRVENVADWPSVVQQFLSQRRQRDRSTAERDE
# Sequence of NAD-dependent protein deacylase sirtuin-5, mitochondrial (Q9NXA8 whole entry): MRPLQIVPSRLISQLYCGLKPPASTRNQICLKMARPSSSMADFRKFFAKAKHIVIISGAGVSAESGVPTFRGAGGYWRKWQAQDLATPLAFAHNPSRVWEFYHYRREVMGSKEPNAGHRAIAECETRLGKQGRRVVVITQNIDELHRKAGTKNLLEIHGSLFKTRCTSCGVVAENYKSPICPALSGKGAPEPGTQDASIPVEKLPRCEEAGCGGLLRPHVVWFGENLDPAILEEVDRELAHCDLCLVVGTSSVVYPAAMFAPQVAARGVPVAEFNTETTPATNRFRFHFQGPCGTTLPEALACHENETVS
# Sequence of Glyceraldehyde-3-phosphate dehydrogenase (P04406 whole entry): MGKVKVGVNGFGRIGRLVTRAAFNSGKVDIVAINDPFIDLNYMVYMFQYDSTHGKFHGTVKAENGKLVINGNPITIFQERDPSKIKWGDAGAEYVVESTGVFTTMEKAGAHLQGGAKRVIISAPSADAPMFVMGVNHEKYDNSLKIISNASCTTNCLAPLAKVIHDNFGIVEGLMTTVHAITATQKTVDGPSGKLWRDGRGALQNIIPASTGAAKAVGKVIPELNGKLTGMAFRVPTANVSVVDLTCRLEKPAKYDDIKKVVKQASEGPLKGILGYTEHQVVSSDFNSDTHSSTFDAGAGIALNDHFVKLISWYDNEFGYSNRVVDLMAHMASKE
# Sequence of FAD-linked sulfhydryl oxidase ALR (P55789 whole entry): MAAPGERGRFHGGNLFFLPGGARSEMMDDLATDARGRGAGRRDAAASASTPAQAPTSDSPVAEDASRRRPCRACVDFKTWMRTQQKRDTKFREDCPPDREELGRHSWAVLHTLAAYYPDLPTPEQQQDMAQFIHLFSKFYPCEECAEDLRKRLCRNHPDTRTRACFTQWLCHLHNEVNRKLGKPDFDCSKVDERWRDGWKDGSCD
structure (smiles),measurement,setting,value
COC(=O)c1ccc2[nH]ccc2c1,IC50,[1],42.7 µM (active)
Cc1cc(C)c(S(=O)(=O)Nc2ccccc2-c2ccccc2)c(C)c1,EC50,[2],> 29.9 µM (not active)
same,EC50,[3],5.34 µM (active)
CN(C)C(CNC(=O)CCNC(=O)c1ccc(Cl)cc1)c1ccco1 (stereo not given),AC50,[4],> 30 µM (inactive)
Oc1ccccc1-c1nc2c3ccccc3c3ccccc3c2[nH]1,EC50,[5],4.11 µM (active)
same,EC50,[6],2.55 µM (active)
same,CC50,[7],15.3 µM (active)
same,IC50,[1],11 µM (active)
same,EC50,[8],12 µM (active)
Cc1ccc(S(=O)(=O)NC2CCCCC2)c2nsnc12,EC50,[2],> 29.9 µM (not active)
same,EC50,[3],8.34 µM (active)
COC(=O)[C@H](Cc1c[nH]c2ccccc12)NC(=O)NCc1ccc(OC)c(OC)c1,AC50,[4],> 30 µM (inactive)
COc1cccc(N2C(=O)C(Cl)=C(N3CCN(C/C=C/c4ccccc4)CC3)C2=O)c1,IC50,[9],> 50 µM (inconclusive)
CC1=CC(C)(C)N(C(=O)CN2C(=O)c3ccccc3C2=O)c2ccccc21,EC50,[2],> 29.9 µM (not active)
same,EC50,[3],1.45 µM (active)
CC1CCN(CC(=O)Nc2ccc(N3CCCCCC3)cc2)CC1,AC50,[10],18 µM (active)
same,AC50,[11],0.448 µM (active)
same,IC50,[12],13 µM (active)
CCOc1cc(CNc2ccc(O)cc2)cc(Br)c1OCc1ccccc1F,CC50,[13],27.8 µM (active)
same,IC50,[14],9.81 µM (not active)

# Source: ChEMBL document CHEMBL1201862, “PubChem BioAssay data set” (2004)
